Results: patent publication EP4759816A1, “UREA-CONTAINING […] ß-LACTAMASE INHIBITOR, PREPARATION METHOD THEREFOR AND USE THEREOF” (priority 2023, dated 2025)
Like-named read-outs stand apart in the source and are kept apart here.

Assays:
TEM-1 = TEM-1 (Escherichia coli, UniProt P62593); test: β-Lactamase inhibitory activity test, nitrocefin substrate; format: biochemical
Protocol: (§1) The IC50 of β-lactamase inhibitors against β-lactamases was tested using nitrocefin as the substrate. The enzyme and serially diluted β-lactamase inhibitor were incubated in 50 mM phosphate buffer (containing 0.1 mg/mL bovine serum albumin) at 37°C for 10 minutes. The reaction was initiated by adding 100 µM nitrocefin, and the reaction temperature was set to 37°C. The absorbance at 490 nm was recorded every minute for a total of 1 hour. The initial reaction rate was calculated, and the IC50 was calculated using GraphPad Prism software. Table 4. Inhibitory activity (IC50, mg/L) of compounds against β-lactamases

OXA-23 = OXA-23 (Acinetobacter baumannii, UniProt Q9L4P2); test: as above; format: biochemical
OXA-23, sequence (Q9L4P2 18-273): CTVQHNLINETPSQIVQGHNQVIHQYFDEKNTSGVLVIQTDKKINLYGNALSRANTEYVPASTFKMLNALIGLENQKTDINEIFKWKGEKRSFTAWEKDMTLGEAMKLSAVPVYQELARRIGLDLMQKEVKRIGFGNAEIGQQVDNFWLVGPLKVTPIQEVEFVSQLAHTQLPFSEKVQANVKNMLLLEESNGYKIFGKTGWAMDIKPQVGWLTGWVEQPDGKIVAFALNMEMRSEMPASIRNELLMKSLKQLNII
Protocol: as §1

KPC-2 = KPC-2 (Klebsiella pneumoniae, UniProt Q9F663); test: as above; format: biochemical
KPC-2, sequence (Q9F663 25-293 limits assumed): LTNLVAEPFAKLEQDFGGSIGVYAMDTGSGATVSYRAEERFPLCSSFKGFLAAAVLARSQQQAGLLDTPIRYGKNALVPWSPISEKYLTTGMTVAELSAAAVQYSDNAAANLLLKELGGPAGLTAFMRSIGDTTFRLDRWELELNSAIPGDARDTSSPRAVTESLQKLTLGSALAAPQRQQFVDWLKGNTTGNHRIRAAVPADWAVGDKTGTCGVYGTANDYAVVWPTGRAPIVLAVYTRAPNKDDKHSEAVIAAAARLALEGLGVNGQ
Protocol: as §1

OXA-10 = OXA-10 (Pseudomonas aeruginosa, UniProt P14489); test: as above; format: biochemical
OXA-10, sequence (P14489 20-266): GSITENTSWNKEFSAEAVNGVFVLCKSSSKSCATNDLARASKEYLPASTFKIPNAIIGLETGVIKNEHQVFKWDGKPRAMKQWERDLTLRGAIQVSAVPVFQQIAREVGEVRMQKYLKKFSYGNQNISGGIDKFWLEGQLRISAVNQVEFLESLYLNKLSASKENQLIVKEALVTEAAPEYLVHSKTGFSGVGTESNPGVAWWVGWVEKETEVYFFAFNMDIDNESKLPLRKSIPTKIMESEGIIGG
Protocol: as §1

K.Pneumoniae BAA-1705 = test: MIC by broth microdilution, β-lactam antibiotic combined with β-lactamase inhibitor; format: cell-based; details: Klebsiella pneumoniae, BAA1705; K.Pneumoniae BAA-1705, expresses KPC-2; MIC of the antibiotic, inhibitor fixed at 4 mg/L; read-out: Antibacterial Activity (MIC50)
E. coli ATCC 35218 = test: as above; format: cell-based; details: Escherichia coli, ATCC35218; E. coli ATCC 35218, expresses TEM-1; MIC of the antibiotic, inhibitor fixed at 4 mg/L; read-out: Antibacterial Activity (MIC50)
Protocol: (§2) The minimum inhibitory concentration (MIC) of the Example compounds (at a concentration of 4 mg/L) in combination with β-lactam antibiotics (ceftazidime, cefepime, meropenem, imipenem, aztreonam) against bacterial strains was tested using the broth microdilution method recommended by the Clinical and Laboratory Standards Institute (CLSI, formerly NCCLs) [Methods for Dilution Antimicrobial Susceptibility Tests for Bacteria That Grow Aerobically; Approved Standard-tenth Edition M07-A10, 2015]. The specific test materials and procedures are as follows.
(§3) The standard strains used in this experiment were purchased ATCC strains. The clinical strains used were strains resistant to some or all marketed β-lactam antibiotics, isolated and identified by domestic public hospitals, and the types of β-lactamases they express were determined. Before the experiment, each bacterial strain was purified by streaking single colonies on an agar plate, and fresh bacterial cultures grown overnight at 37°C were appropriately diluted for the experiment.
(§4) CAMHB (Cation Adjusted Mueller-Hinton) medium, incubated at 35-37°C in air for 16-20 h.
(§5) CAMHB Formula: Acid-hydrolyzed casein (17.5 g/L), beef extract (3.0 g/L), soluble starch (1.5 g/L), calcium ions (20-25 mg/L), magnesium ions (10-12.5 mg/L).
(§6) Stock solutions at 4 times the working concentration were prepared in CAMHB broth for the combinations of antibiotics (ceftazidime, cefepime, meropenem, aztreonam) and Example compounds. The final concentrations of antibiotics in the stock solutions were 256, 128, 64, 32, 16, 8, 4, 2, 1, 0.5, 0.25, 0.125 mg/L, respectively. The final concentration of avibactam, relebactam, or Example compounds was 4 mg/L.
(§7) Several colonies were picked from an 18-24 h cultured agar plate and suspended directly in sterile physiological saline to prepare a bacterial suspension. The turbidity of the suspension was adjusted to 0.5 McFarland standard. The adjusted bacterial suspension was diluted with CAMHB broth to (4-8) × 10^5 CFU/mL and used immediately.
(§8) Test Group: 50 µL of the antibiotic (ceftazidime, cefepime, meropenem, imipenem, aztreonam) stock solution and 50 µL of the β-lactamase inhibitor (avibactam, relebactam, or Example compound) stock solution were added to wells 1 to 12 of a sterile 96-well polystyrene plate. Then, 100 µL of CAMHB containing the test bacterial suspension was added to each well, making a total volume of 200 µL per well. The final drug concentrations in the wells were 64, 32, 16, 8, 4, 2, 1, 0.5, 0.25, 0.125, 0.06, 0.03 mg/L, respectively. […]
(§9) The inoculated 96-well polystyrene plates were sealed and placed in an incubator at 35-37°C for 16-20 h before reading the results. […]

E. coli ATCC 25922 = test: as above; format: cell-based; details: Escherichia coli, ATCC25922; E. coli ATCC 25922, β-lactamase expressed: -; MIC of the antibiotic, inhibitor fixed at 4 mg/L; read-out: Antibacterial Activity (MIC50)
Protocol: as §2, §3, §4, §5, §6, §7, §8, §9

P. aeruginosa ATCC 27853 = test: as above; format: cell-based; details: Pseudomonas aeruginosa, ATCC27853; P. aeruginosa ATCC 27853, expresses AmpC; MIC of the antibiotic, inhibitor fixed at 4 mg/L; read-out: Antibacterial Activity (MIC50)
Protocol: as §2, §3, §4, §5, §6, §7, §8, §9

E. Coli NCTC 13353 = test: as above; format: cell-based; details: Escherichia coli, NCTC13353; E. Coli NCTC 13353, expresses CTX-M-15; MIC of the antibiotic, inhibitor fixed at 4 mg/L; read-out: Antibacterial Activity (MIC50)
Protocol: as §2, §3, §4, §5, §6, §7, §8, §9

[1] = TEM-1, enzyme family A, 100 µM nitrocefin, 37°C, 10 minutes preincubation, read-out: Inhibitory activity (IC50)

TEM-1, sequence (P62593 24-286 limits assumed): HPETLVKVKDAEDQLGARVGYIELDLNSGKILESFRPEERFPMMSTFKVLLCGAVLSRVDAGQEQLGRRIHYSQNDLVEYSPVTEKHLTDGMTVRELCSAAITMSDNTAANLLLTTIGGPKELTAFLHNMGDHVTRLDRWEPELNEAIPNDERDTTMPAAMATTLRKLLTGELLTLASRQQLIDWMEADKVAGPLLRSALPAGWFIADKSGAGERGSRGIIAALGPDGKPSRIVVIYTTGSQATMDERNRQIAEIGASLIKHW

| MIC50 (K.Pneumoniae BAA-1705) | MIC50 (E. coli ATCC 35218) | MIC50 (E. coli ATCC 25922) | MIC50 (P. aeruginosa ATCC 27853) | MIC50 (E. Coli NCTC 13353) | Structure (SMILES) | IC50 (TEM-1) | IC50 (OXA-23) | IC50 (KPC-2) | IC50 (TEM-1; [1]) | IC50 (OXA-10) |
| --- | --- | --- | --- | --- | --- | --- | --- | --- | --- | --- |
|  |  |  |  |  | O=C1N2Cc3c(ccn3S(=O)(=O)c3cccnc3)[C@H](C2)N1OS(=O)(=O)O [Example 10 Compound] | < 1000 nM | < 1000 nM | < 1000 nM |  |  |
|  |  |  |  |  | NC(=O)C1c2c(ccn2S(=O)(=O)C2CC2)C2CN1C(=O)N2OS(=O)(=O)O (centres unmarked) [Example 15 Compound] | > 100000 nM | > 100000 nM | > 100000 nM |  |  |
|  |  |  |  |  | O=C1N2Cc3c(ccn3S(=O)(=O)c3ccccc3)C(C2)N1OS(=O)(=O)O (centres unmarked) [Example 1 Compound] |  | < 1000 nM | < 1000 nM | < 1000 nM | < 1000 nM |
|  |  |  |  |  | CCS(=O)(=O)n1ccc2c1CN1C[C@@H]2N(OS(=O)(=O)O)C1=O [Example 4 Compound] | < 1000 nM | 1000 to 10000 nM | < 1000 nM |  |  |
| > 10 µg/mL | 0.1 to 1 µg/mL | 0.1 to 1 µg/mL | 1 to 10 µg/mL | > 10 µg/mL | CC(C)(O/N=C(\C(=O)N[C@@H]1C(=O)N2C(C(=O)[O-])=C(C[n+]3ccccc3)CS[C@H]12)c1csc(N)n1)C(=O)O [Ceftazidime] |  |  |  |  |  |
|  |  |  |  |  | CS(=O)(=O)n1ccc2c1CN1C[C@@H]2N(OS(=O)(=O)O)C1=O [Example 3 Compound] |  | < 1000 nM | < 1000 nM | < 1000 nM | < 1000 nM |
|  |  |  |  |  | CS(=O)(=O)n1ccc2c1CN1CC2N(OS(=O)(=O)O)C1=O (centres unmarked) [Example 2 Compound] |  | < 1000 nM | < 1000 nM | < 1000 nM | < 1000 nM |
|  |  |  |  |  | CS(=O)(=O)n1ccc2c1C(C(N)=O)N1CC2N(OS(=O)(=O)O)C1=O (centres unmarked) [Example 14 Compound] | < 1000 nM | 10000 to 100000 nM | < 1000 nM |  |  |
|  |  |  |  |  | Cn1cc(S(=O)(=O)n2ccc3c2CN2C[C@@H]3N(OS(=O)(=O)O)C2=O)cn1 [Example 11 Compound] | < 1000 nM | 1000 to 10000 nM | < 1000 nM |  |  |
